Measurements from patent US8741843B2, “Compositions and methods for inducing angiogenesis” (priority 2006, dated 2014).
“Also recorded” adds a separate entry of the source.

How the values were obtained:
[1] = tested on: endothelial cells; assay: CoCl2-induced apoptosis of endothelial cells (Annexin-FITC/PI FACS); type: cell-based, human; conditions: 24 hours CoCl2 treatment, normoxia about 27%
Protocol: FIGS. 33a-f are representative FACS analyses depicting a specific inhibition of hypoxia-induced apoptosis of endothelial cells by ADOPep1. Endothelial cells in Petri dishes were incubated for 24 hours with 5% FCS in supplement-free endothelial cell growth medium under normoxia (FIGS. 33a and d), exposed to 24 hours hypoxia (Figures c and f) or incubated under normoxia with 100 micromolar per 100,000 cells CoCl2 (FIGS. 33b and e), in the absence (FIGS. 33a-c) or presence (FIGS. 33d-f) of 10 ng/ml Adopep1 peptide (for 24 hours). Cells were trypsinized and immediately re-suspended in PBS with 5% FCS and 0.1% Na-azide. Samples containing 100,000 cells were tested for apoptosis using the Annexin-FITC (X axis) and propidium iodide (Y axis) kit (Bender Medsystems, Vienna, Austria), according to manufacturer's instructions. Results were analyzed by FACScan (Beckton Dickinson).
FIG. 34 is a histogram depicting the FACS results of the experiments described in FIGS. 33a-f. Data represents average±SD of 2 experiments.

[2] = tested on: GRP78 receptor on endothelial cells; assay: Competitive binding of ADOPeps to GRP78 (anti-GRP78 antibody ELISA on endothelial cells); set-up: species or system human; conditions: summary of 4 experiments
Protocol: FIG. 19 is a graph depicting inhibition of binding (in percentages) of anti-GRP78 antibody to endothelial cells by increasing concentrations of ADOPep1, 2, and 3 peptides. Endothelial cells were incubated for 2 hours with increasing concentrations of ADOPeps, following which the cells were incubated for another 1 hour with the 2 μg/ml of anti-GRP78 antibody and the amount of bound antibody on EC was detected using an ELISA reader.
Endothelial cells (20,000 per well) were seeded in 96 well plates for 24 hours in the presence of the complete medium. Plates were washed with PBS over night and rehydrated with PBS, 0.1% Na Azide and 5% FCS. ADOPep1, ADOPep2 and ADOPep3 were added to washed plates for 2 hours at room temperature at concentrations of 0.01, 0.1 and 1 microgram per ml. Anti-GRP78 antibody (goat polyclona IgG, Santa Cruz Biotechnology, Calif., USA) was added to the plates for 1 hour at room temperature at a concentration of 2 micrograms/ml per well. After washing, bound anti-GRP78 antibody was detected by incubation with anti-goat IgG Peroxidase conjugated (Jackson Immuneresearch Laboratories, PA, USA). After 5 washes with PBS-0.1% Tween 20, 100 μl/well of TMB+ Substrate-Chromogen (DAKOCytomation, CA, USA) was added for a maximum of 30 minutes. Reaction was stopped with 1N HCl. Color developed was determined by an ELISA reader at 450 nm.

[3] = tested on: ERK½; assay: ERK½ phosphorylation in endothelial cells under hypoxia (Western blot, densitometry); type: cell-based, human; conditions: for ERK½ phosphorylation (in words): endothelial cells under hypoxia, 10 ng/ml
Protocol: FIGS. 30a-b are Western blot analyses depicting induction of phosphorylation of ERK by ADoPep1 and Motif A. Endothelial cells under starvation conditions and 5 hours hypoxia were incubated for 5 (lanes 2 and 6), 20 (lanes 3 and 7), 30 (lanes 4 and 8) and 60 (lanes 5 and 9) minutes with 10 ng/ml ADoPep1 (Lanes 2-5) or Motif A (lanes 6-9) peptides or remained under hypoxia without a further incubation with a peptide (lane 1). After incubation, lysates were prepared, subject to SDS-PAGE and blotting on a nitrocellulose membrane. Western Blot analysis was performed using anti-Phospho ERK½ antibody. […] FIG. 30a—Experiment 1; FIG. 30b—Experiment 2. The percent adjusted volume as determined by a densitometric analysis software to compare net band densities was as follows: FIG. 30a, lane 1-4.5, lane 2-9.3, lane 3-13.7, lane 4-13.3, lane 5-11.2, lane 6-10.7, lane 7-12.4, lane 8-12.3 and lane 9-12.4; FIG. 30b, lane 1-4.21, lane 2-12.4, lane 3-12.5, lane 4-14.8, lane 5-10.9, lane 6-14.9, lane 7-9.8, lane 8-12.7 and lane 9-7.8.
FIG. 31 is a Western blot analysis depicting the level of phosphorylated ERK (pERK) in endothelial cells activated for 20 minutes with ADOPep1 and motif A and inhibited by pERK-inhibitor peptide. Endothelial cells (from cord 1) under starvation conditions and 5 hours hypoxia were incubated with 10 ng/ml ADOPep1 (lanes 3 and 4) or motif A (lanes 1 and 2) peptides in the presence (lanes 2 and 4) or absence (lanes 1 and 3) of p-ERK-inhibitor peptide (Santa Cruz). For control, the endothelial cells under starvation conditions and 5 hours hypoxia (lane 5) were also incubated with the p-ERK-inhibitor peptide (lane 6). […] The percent adjusted volume as determined by a densitometric analysis software to compare net band densities was as follows: lane 1-19, lane 2-14, lane 3-14, lane 4-8.8, lane 5-11, lane 6-2.1.
FIGS. 32a-b are Western blot analyses depicting the effect of ADOPeps on the level of phosphorylated ERK. Endothelial cells (EC) from cord 1 (FIG. 32a) or cord 2 (FIG. 32b) under hypoxia (5 hours) were incubated for 20 or 30 minutes with 10 ng/ml of AdoPep1, AdoPep2 and AdoPep3 or remained untreated (i.e., under hypoxia without any peptide). Western Blot analyses of samples cell lysates were performed with anti Phospho ERK antibody on nitrocellulose membranes. […] The percent adjusted volume as determined by a densitometric analysis software to compare net band densities was as follows: FIG. 32a, lane 1-11, lane 2-13, lane 3-11, lane 4-5, lane 5-11, lane 6-13, lane 7-17, lane 8-16.7; FIG. 32b, lane 1-17, lane 2-22, lane 3-19, lane 4-7, lane 5-8, lane 6-13, lane 7-14, lane 8-1.

[4] = tested on: endothelial cells (HUVEC); assay: Proliferation of endothelial cells under hypoxia ([H3]Thymidine incorporation); type: cell-based, human; conditions: 24 hours starvation, 10 ng/ml
Protocol: FIG. 5 is a graph depicting cell proliferation as a function of ADOPeps' concentration. Proliferation of endothelial cells (EC) under hypoxia conditions was measured by [H^3]Thymidine incorporation. Endothelial cells (12,000/well) in minimal growth medium were incubated for 24 hours in the presence of 1, 10 and 100 ng/ml of ADOPep1 (SEQ ID NO:2; red diamonds), 2 (SEQ ID NO:3; blue squares) and 3 (SEQ ID NO:4; green triangles) peptides.
HUVEC from passage 3 were used for proliferation experiments. Endothelial cells (15,000 cells/well) were seeded on 24-wells in the presence of endothelial cell growth medium (Promocell, Heidelberg, Germany) with supplements and incubated for 24 hours. After then, cells were exposed to 24 hours starvation in a medium free of supplements. ADOPeps were added at concentrations of 1, 10 and 100 ng/ml for 24 hours under hypoxic conditions. 2 μCi/well of Thymidine (SIGMA, Rehovot Israel) were added or over night incubation followed by 3 washes with PBS before harvesting at 37° C. with 300 μl/well of 0.5 M NaOH. Cell lysates were transferred to scintillation vials with 2 ml scintillation liquid Ultima Gold (Packard Bioscience, Meriden, USA) and counted in a β counter. Results were obtained as counts per minute (cpm).

[5] = tested on: endothelial cells; assay: Tube formation of endothelial cells on Cultrex Basement Membrane Extract; type: cell-based, human; conditions: 10 ng/ml, 18 hours, starvation and normoxic conditions
Protocol: FIG. 27 is a graph depicting induction of tube formation using AdoPep1 and Motif A (SEQ ID NO:7) but not the scrambled sROY peptide. Endothelial cells were incubated in media without supplements for 24 hours, and 50,000 cells were then transferred in 500 μl medium to 24-well plates precoated with 250 μl Cultrex Basement Membrane Extract (with reduced growth factors) (R&D Systems, Minneapolis, Minn., USA). AdoPep1, Motif A and scrambled sROY peptides were added at an optimal concentration of 10 ng/ml (based on preliminary findings), and the slides were examined by light microscopy after 18 hours incubation. The results represent average±SD of three experiments using 3 different cords. The length of the network of connected cells (tube formation) was measured in micrometers in 5 different areas of each well using Image-Pro Plus Image software (Media Cybernetics, Silver Spring, Md., USA).

[6] = FIG. 32a cord 1, 10 ng/ml, 20 minutes, untreated 11, 13
[7] = FIG. 32a cord 1, 10 ng/ml, 30 minutes, untreated 11, 13
[8] = FIG. 32b cord 2, 10 ng/ml, 20 minutes, untreated 17
[9] = FIG. 32b cord 2, 10 ng/ml, 30 minutes, untreated 8

`[Cl][Co][Cl]` [CoCl2, Cobalt-Chloride, reference compound] gave a level of apoptosis [1] of roughly 67%.

In the case of “AVTLENFLHWRR [ADOPep3, ADAM15 derived peptide]”, the “inhibition of binding of anti-GRP78 antibody to EC (in words)” value (shortened to “inhibition”) [2] is reported as “some degree of inhibition”, the “percent adjusted volume of phospho ERK band” value (from here on “percent adjusted volume”) [3, 6] is reported as 11% and the “percent adjusted volume” value [3, 7] is reported as 5%. The “percent adjusted volume” value [3, 8] was 7%, the “percent adjusted volume” value [3, 9] was 1% and the “ERK½ phosphorylation (in words)” value [3] was “had not effect on ERK½ phosphorylation”.

In the case of “ENFLHWRRAHLL [ADOPep2, ADAM15 derived peptide]”, the “proliferation of endothelial cells” value [4] is reported as “capable of inducing proliferation of EC”, the “inhibition” value [2] is reported as “some degree of inhibition” and the “percent adjusted volume” value [3, 6] is reported as 11%. For the same compound, the “percent adjusted volume” value [3, 7] was 13%, the “percent adjusted volume” value [3, 8] was 19% and the “percent adjusted volume” value [3, 9] was 14%. For the same compound, the “ERK½ phosphorylation (in words)” value [3] was “induced ERK½ phosphorylation; also recorded: increase in ERK½ phosphorylation”.

For “RYHLIPRGWDHS [sRoY, scrambled control peptide, reference compound]”, the “tube formation (length of the network of connected cells)” value ([5]; listed as scrambled sROY) was “did not induced tube formation”, the “tube formation (length of the network of connected cells)” value ([5]; listed as scrambled sROY peptide) was “no effect on tube formation” and the “inhibition” value [2] was “not effective; also recorded: no specific inhibition effect”.
